Here are results for one molecule from ChEMBL document CHEMBL2074176, “Multidrug resistance protein 1 (MRP1, ABCC1) mediates resistance to mitoxantrone via glutathione-dependent drug efflux” (Mol Pharmacol, 2006).

Format in all cases: functional, cell-based
Data set [1] addresses T1, Multidrug resistance-associated protein 1 (Homo sapiens, UniProt P33527). Briefly: TP_TRANSPORTER: cell accumulation in MCF7/MRP1-M24 cells.
Data set [2] concerns the target T1, Multidrug resistance-associated protein 1. Briefly: TP_TRANSPORTER: cell accumulation in MCF7/MRP1-10 cells.
Data set [3] shares this target. Briefly: TP_TRANSPORTER: ATP- and GSH-dependent transport in MCF7/MRP1-10 cells.
Data set [4] has the same target. Briefly: TP_TRANSPORTER: transport in etoposide-selected MCF7 cells.
The target is the same in data set [5]. Kind of data set: TP_TRANSPORTER: cell accumulation in MCF7/MRP1-M6 cells.

Each structure is given as a SMILES string.

T1 sequence (P33527 whole entry): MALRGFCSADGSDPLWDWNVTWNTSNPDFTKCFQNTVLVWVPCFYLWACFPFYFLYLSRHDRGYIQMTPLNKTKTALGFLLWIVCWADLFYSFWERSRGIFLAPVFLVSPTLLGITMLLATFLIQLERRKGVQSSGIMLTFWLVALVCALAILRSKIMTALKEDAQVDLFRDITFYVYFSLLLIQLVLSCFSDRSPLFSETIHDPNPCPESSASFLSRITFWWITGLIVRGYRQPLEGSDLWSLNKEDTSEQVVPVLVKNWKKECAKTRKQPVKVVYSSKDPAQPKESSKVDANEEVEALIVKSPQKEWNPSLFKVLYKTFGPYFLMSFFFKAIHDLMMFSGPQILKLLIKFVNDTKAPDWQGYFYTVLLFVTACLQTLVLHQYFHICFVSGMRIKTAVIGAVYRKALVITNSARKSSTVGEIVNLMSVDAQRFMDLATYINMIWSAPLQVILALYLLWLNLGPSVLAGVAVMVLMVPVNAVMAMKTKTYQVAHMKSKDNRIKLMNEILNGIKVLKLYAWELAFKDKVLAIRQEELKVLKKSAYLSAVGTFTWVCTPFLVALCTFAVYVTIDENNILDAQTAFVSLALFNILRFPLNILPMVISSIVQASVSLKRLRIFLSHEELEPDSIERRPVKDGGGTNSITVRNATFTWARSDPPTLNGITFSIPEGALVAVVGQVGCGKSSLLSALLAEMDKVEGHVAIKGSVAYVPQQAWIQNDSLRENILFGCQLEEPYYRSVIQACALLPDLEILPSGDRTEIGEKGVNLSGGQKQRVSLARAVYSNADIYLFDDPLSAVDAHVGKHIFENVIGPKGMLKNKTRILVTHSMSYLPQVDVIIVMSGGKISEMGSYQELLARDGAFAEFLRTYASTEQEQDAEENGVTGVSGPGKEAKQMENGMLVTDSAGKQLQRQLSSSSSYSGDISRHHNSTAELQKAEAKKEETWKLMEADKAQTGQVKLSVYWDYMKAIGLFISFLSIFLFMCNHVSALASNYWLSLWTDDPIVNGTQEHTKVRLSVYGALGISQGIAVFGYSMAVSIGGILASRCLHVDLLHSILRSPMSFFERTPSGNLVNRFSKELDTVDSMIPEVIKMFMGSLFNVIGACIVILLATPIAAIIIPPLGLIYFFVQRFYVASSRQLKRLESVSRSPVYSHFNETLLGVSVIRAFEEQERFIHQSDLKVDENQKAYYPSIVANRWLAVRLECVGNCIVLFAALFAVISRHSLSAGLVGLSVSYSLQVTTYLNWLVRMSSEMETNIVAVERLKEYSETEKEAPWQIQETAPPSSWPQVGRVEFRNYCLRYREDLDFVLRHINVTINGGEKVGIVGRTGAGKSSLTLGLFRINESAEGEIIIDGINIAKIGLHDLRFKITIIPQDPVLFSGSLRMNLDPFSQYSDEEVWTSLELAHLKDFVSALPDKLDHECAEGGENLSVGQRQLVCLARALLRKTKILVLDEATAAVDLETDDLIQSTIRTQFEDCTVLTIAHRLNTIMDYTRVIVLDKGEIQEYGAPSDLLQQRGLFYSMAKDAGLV

`O=C1c2c(O)ccc(O)c2C(=O)c2c(NCCNCCO)ccc(NCCNCCO)c21` [MITOXANTRONE]: the 50% inhibitory concentration (IC50) is 1.5 nM in data set [1], 1.9 nM in data set [2] and 1.5 nM in data set [5]. In addition, the Activity result in data set [3] and in data set [4] was “substrate [+]” each time.
